Measurements taken from US10167272B2, “Muscarinic agonists” (Heptares Therapeutics Limited, priority 2015, dated 2019).
Where two headings read alike, the source gives them in different places.

Tests used:
rats = assay: d-amphetamine-induced hyperactivity in rats; format: in vivo, rat; details: positive control dose, previously observed
Experimental: Effect of a Novel Test Compound and Xanomeline on d-Amphetamine-Induced Hyperactivity in Rats
The aim of the study is to examine the effect of a novel test compound on d-amphetamine induced hyperactivity in rats. Schizophrenia is a complex multifactorial disease that cannot be fully represented by a single experimental procedure. Antipsychotic-like behaviour was assessed in rats by the inhibition of hyperactivity (or hyperlocomotion) elicited by d-amphetamine. This procedure is sensitive to clinically relevant dopamine receptor antagonists and is therefore considered suitable for comparing muscarinic agonists that influence dopaminergic signalling. […] Statistical analysis typically involved three-way analysis of covariance or robust regression with treatment, day and rack as factors and activity during the 30 minutes prior to treatment as a covariate, followed by appropriate multiple comparison tests. A P value of <0.05 was considered statistically significant and is marked accordingly in all subsequent figures.

[1] = biological target: T1, human muscarinic M4 receptor (Homo sapiens, UniProt P08173); assay: Alphascreen Surefire phospho-ERK1/2 functional assay, M4; format: cell-based; details: for Emax: CHO, read-out: % Emax cf. ACh (M4), CHO cells stably expressing human M4, relative to ACh
T1 construct: expressed in transfected cells
T1 sequence (P08173 1-479): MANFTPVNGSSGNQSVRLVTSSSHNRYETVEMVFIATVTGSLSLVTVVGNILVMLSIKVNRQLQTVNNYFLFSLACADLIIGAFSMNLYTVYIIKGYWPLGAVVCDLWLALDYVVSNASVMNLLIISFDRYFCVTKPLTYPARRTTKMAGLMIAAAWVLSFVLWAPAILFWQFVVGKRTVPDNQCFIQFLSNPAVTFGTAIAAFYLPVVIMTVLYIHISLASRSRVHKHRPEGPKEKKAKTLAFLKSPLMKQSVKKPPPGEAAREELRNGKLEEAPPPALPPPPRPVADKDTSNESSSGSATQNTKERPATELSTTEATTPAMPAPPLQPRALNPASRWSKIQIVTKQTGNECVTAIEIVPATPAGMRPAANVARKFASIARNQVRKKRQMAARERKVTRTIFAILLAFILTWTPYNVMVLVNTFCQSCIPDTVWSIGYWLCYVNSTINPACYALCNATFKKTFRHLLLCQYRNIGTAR

[2] = biological target: T2, human muscarinic M1 receptor (Homo sapiens, UniProt P11229); assay: Alphascreen Surefire phospho-ERK1/2 functional assay, M1; format: cell-based; details: phospho-ERK1/2; for EC50: CHO cells stably expressing human M1, read-out: pEC50 M1 (converted); for Emax: CHO, read-out: % Emax cf. ACh (M1), CHO cells stably expressing human M1, relative to ACh
T2 sequence (P11229 1-460): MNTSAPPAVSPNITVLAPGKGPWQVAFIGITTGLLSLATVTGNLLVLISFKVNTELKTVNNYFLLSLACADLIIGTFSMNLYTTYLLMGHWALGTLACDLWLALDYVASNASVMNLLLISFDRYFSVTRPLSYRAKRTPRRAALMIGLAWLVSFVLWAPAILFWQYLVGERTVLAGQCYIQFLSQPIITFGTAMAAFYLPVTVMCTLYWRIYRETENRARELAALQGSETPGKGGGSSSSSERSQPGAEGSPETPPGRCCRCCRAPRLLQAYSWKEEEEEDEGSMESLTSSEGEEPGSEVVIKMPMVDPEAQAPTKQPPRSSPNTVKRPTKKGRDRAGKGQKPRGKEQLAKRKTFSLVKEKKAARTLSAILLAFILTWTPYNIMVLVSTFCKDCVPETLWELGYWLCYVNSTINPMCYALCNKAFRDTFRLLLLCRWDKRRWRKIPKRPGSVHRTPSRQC
Outline: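 CHO cells stably expressing human M1, M2 or M3 receptor, serum-starved overnight, were stimulated with agonist for 5 min at 37 °C. Cells were then lysed and ERK1/2 phosphorylation detected by AlphaScreen SureFire.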

[3] = biological target: T3, human muscarinic M2 receptor (Homo sapiens, UniProt P08172); assay: Alphascreen Surefire phospho-ERK1/2 functional assay, M2; format: cell-based; details: for EC50: CHO cells stably expressing human M2, read-out: pEC50 M2 (converted); for Emax: CHO, read-out: % Emax cf. ACh (M2), CHO cells stably expressing human M2, relative to ACh
T3 sequence (P08172 1-466): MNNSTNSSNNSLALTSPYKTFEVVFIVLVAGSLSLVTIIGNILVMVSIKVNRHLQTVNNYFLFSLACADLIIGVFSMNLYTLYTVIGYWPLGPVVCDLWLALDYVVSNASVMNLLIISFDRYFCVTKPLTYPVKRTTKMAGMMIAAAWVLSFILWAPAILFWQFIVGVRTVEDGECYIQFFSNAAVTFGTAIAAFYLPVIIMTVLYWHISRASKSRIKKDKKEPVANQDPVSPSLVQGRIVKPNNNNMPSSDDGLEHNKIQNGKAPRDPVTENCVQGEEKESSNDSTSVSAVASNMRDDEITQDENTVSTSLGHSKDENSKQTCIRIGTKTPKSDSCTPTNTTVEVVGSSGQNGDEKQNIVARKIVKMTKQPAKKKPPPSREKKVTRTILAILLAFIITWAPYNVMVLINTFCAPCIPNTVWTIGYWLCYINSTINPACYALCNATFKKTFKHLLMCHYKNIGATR
Experimental: (§1) ERK1/2 phosphorylation is a downstream consequence of both Gq/11 and Gi/o protein coupled receptor activation, making it highly suitable for the assessment of M1, M3 (Gq/11 coupled) and M2, M4 receptors (Gi/o coupled), rather than using different assay formats for different receptor subtypes. CHO cells stably expressing the human muscarinic M1, M2, M3 or M4 receptor were plated (25K/well) onto 96-well tissue culture plates in MEM-alpha+10% dialysed FBS. Once adhered, cells were serum-starved overnight. Agonist stimulation was performed by the addition of 5 μL agonist to the cells for 5 min (37° C.). Media was removed and 50 μL of lysis buffer added. After 15 min, a 4 μL sample was transferred to 384-well plate and 7 μL of detection mixture added.

[4] = biological target: T4, human muscarinic M3 receptor (Homo sapiens, UniProt P20309); assay: Alphascreen Surefire phospho-ERK1/2 functional assay, M3; format: cell-based; details: phospho-ERK1/2; for EC50: CHO cells stably expressing human M3, read-out: pEC50 M3 (converted); for Emax: CHO, read-out: % Emax cf. ACh (M3), CHO cells stably expressing human M3, relative to ACh
T4 construct: expressed in transfected cells
Experimental: as §1

[5] = CHO cells stably expressing human M4, phospho-ERK1/2, read-out: pEC50 M4 (converted)

T4 sequence (P20309 whole entry): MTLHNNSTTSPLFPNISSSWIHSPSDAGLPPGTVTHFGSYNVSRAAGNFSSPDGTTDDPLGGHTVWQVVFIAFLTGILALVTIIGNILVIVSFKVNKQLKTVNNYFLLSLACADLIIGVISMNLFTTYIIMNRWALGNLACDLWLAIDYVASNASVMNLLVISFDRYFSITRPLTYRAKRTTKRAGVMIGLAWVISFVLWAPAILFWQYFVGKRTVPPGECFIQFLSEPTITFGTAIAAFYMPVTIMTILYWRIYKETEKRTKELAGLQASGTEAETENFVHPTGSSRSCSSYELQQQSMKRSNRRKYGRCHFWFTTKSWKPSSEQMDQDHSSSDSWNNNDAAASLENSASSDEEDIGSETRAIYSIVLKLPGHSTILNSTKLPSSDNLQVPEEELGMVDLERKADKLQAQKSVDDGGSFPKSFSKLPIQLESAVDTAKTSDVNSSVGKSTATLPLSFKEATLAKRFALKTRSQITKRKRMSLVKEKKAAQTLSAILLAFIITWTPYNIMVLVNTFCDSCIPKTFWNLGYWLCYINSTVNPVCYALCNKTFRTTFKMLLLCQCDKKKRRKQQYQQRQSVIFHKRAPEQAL

Structure (SMILES)	d-amphetamine induced hyperactivity (rats)	EC50 [1, 5] [nM]	Emax ([1]; phospho-ERK1/2) [%]	EC50 [2] [nM]	Emax [2] [%]	EC50 [3] [nM]	Emax [3] [%]	EC50 [4] [nM]	Emax [4] [%]	EC50 ([1]; pEC50 M4) [nM]
CCCCCCOc1nsnc1C1=CCCN(C)C1 [xanomeline]	significantly reduce									
CCOC(=O)N1CCC2(CC(N3CCC(N(C(=O)OC)C(C)C)CC3)C2)C1 (single isomer, unassigned) [2-41 Isomer 2]		15.8	127	316	109	> 20000	57	> 20000	1	
CCOC(=O)N1CCC2(CC(N3CCC(N(CCO)CC(F)(F)F)CC3)C2)C1 (single isomer, unassigned) [2-51 Isomer 2]		20	89	316	84	> 20000	18	> 20000	22	
CCOC(=O)N1CCC2(CC(N3CCC(C(C)N(C(=O)CC)C4CC4)CC3)C2)C1 (single isomer, unassigned) [2-14 Isomer 2]		100	108	2510	47	> 20000	12	> 20000	5	
CCOC(=O)N1CCC2(CC(N3CCC(N(CC)CCF)CC3)C2)C1 (single isomer, unassigned) [2-45 Isomer 2]			45	631	30	> 20000	9	> 20000	16	63.1
CCOC(=O)N1CCC2(CC(N3CCC(N(Cc4ccccc4)C(C)=O)CC3)C2)C1 (single isomer, unassigned) [2-35 Isomer 2]		126	72	39.8	85	> 20000	21	> 20000	34	
CCOC(=O)N1CCC2(CC(N3CCC(C(C)(C)N(CC)C(C)=O)CC3)C2)C1 (single isomer, unassigned) [2-64 Isomer 2]		31.6	128	2510	46	> 20000	2	> 20000	4	
CCOC(=O)N1CC2(CCC(N3CCC(N(CC)C(C)=O)CC3)C2)C1 (single isomer, unassigned) [3-3 Isomer 2]		3.98	93	> 20000	18	> 20000	3	> 20000	21	
CCOC(=O)N1CCC2(CC(N3CCC(N(CC)OC)CC3)C2)C1 (single isomer, unassigned) [2-57 Isomer 2]		39.8	107	1000	40	> 20000	11	> 20000	23	
CCOC(=O)N1CCC2(CC(N3CCC(N(CC)CC(F)(F)F)CC3)C2)C1 (single isomer, unassigned) [2-7 Isomer 2]		12.6	118	79.4	120	> 20000	16	> 20000	10	
